Experiment [1] is described as follows: Weights of rats with focal cerebral ischemia. The format is in vivo, rat. The note with it: GM-1 group, in g (unit assumed). From the text:
Weighing rats before modeling; preparing rat focal cerebral ischemia models through a modified Zea Longa method; weighing the rats on the first postoperative day; and weighing the rats after consecutively administrating a drug for 7 days.

In a further experiment the test system is ED-1 positive cells. The experiment in a line: ED-1 positive cell expression in brain tissue (immunohistochemistry). It counts as in vivo, rat. As to conditions: GM-1 group; after modeling for 8 days. As for the experimental part:
The rLZ-8 high-dosage group, the rLZ-8 middle-dosage group and the rLZ-8 low-dosage group were provided and prepared by physiological saline to respectively have a concentration of 70 μg·ml^−1, 35 μg·ml^−1 and 17.5 μg·ml^−1. ED-1 antibody was provided by Wuhan Boster Biological Technology Co., Ltd., and PV-6000 two-step method immunohistochemical detection reagent was provided by Beijing Zhongshan Golden Bridge Biotechnology Co., Ltd.
The sham operation group, the model group, the positive drug control group, the rLZ-8 high-dosage group (70 μg·kg^−1), the rLZ-8 middle-dosage group (35 μg·kg^−1) and the rLZ-8 low-dosage group (17.5 μg·kg^−1) were provided.
After being embedded by conventional paraffin and sectioned, a brain tissue paraffin section was tested through an immunologic tissue chemical staining method to test an ED-1 positive cell expression thereof. […]

Experiment [2] deals with rat focal cerebral ischemia models. Briefly: NSS grading (modified neurological severity scores, 16-point system) in rat focal cerebral ischemia models. It counts as in vivo. The note with it: GM-1 positive drug control group. As for the experimental part:
Preparing rat focal cerebral ischemia models through a modified Zea Longa method; grading the rats which were fully conscious after operation according to a modified NSS grading standard (16-point system); arranging a sham operation group, a model group, a positive drug control group, a rLZ-8 high-dosage group (70 μg·kg^−1), a rLZ-8 middle-dosage group (35 μg·kg^−1) and a rLZ-8 low-dosage group (17.5 μg·kg^−1); and injecting intraperitoneally, twice a day, wherein the same volume of physiological saline was injected into the sham operation group and the model group, for consecutive 7 days. A positive drug in the positive drug control group was the GM-1.

The test system of another experiment is apoptotic cells. The experiment in a line: Test of apoptosis in brain tissue by TUNEL kit. It counts as in vivo, rat. The note with it: GM-1 group; after modeling for 8 days. How it is done:
The rLZ-8 high-dosage group, the rLZ-8 middle-dosage group and the rLZ-8 low-dosage group were provided and prepared by physiological saline to respectively have a concentration of 70 μg·ml^−1, 35 μg·ml^−1 and 17.5 μg·ml^−1. TUNEL kit.
The sham operation group, the model group, the positive drug control group, the rLZ-8 high-dosage group (70 μg·ml^−1), the rLZ-8 middle-dosage group (35 μg·ml^−1) and the rLZ-8 low-dosage group (17.5 μg·ml^−1) were provided.
After being embedded by conventional paraffin and sectioned, a brain tissue paraffin section was processed according to instructions of the TUNEL kit. […]

As to “monosialotetrahexosyl ganglioside sodium injection [GM-1]”, the Weights of rats in experiment [1] (0th day after modeling (before modeling)) is given as 266.17 ± 21.21; in experiment [1] (1st day after modeling), 246.17 ± 21.99; in experiment [1] (8th day after modeling, drug for 7 days) it was 251.17 ± 40.31. Moreover, in the experiment on ED-1 positive cells, the “ED-1 positive cell number” value is 13.87 ± 2.39. For the same substance, the NSS grading stood at 4.33 ± 1.30 in experiment [2] (1st day); 3.92 ± 1.38 in experiment [2] (2nd day); 3.58 ± 1.24 in experiment [2] (3rd day); 2.75 ± 1.09 in experiment [2] (4th day); 2.50 ± 1.00 in experiment [2] (5th day); 2.58 ± 1.08 in experiment [2] (6th day). Also, the NSS grading in experiment [2] (7th day) amounted to 2.41 ± 1.00; in experiment [2] (i.p. twice a day, 0th day, n=12) it was 4.75 ± 1.30. In addition, the “Apoptotic cell number (TUNEL)” value in the experiment with apoptotic cells is recorded as 23.10 ± 2.47.
